This is an account of results in the supplement of paper PMC10307832.

Test in all cases: relative viability (nuclei count vs DMSO), 5 days (fraction); higher = more cells survive
Compound in test [1]: CN(C)CC1=CC(=CC=C1)N=C(C2=CC=CC=C2)C3=C(NC4=C3C=CC(=C4)C(=O)N(C)C)O + COc1cccc2cc(-c3nc([C@H]4CC[C@H](C(=O)O)CC4)n4ncnc(N)c34)[nH]c12 [OSI-027] (partner 0.5 µM)
In a few lines: (§1)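 Lung cancer cell lines were pin-tool dosed in 1536-well plates on the day after seeding, with either a lone drug or a fixed anchor-drug dose plus five library-drug doses (not always all listed) in √10 steps. Nuclei were counted on 4× images after 5 days. Relative viability is the ratio of treated-well to vehicle-well nuclei counts, with each value a median of duplicate plates.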

Compound in test [2]: CN(C)CC1=CC(=CC=C1)N=C(C2=CC=CC=C2)C3=C(NC4=C3C=CC(=C4)C(=O)N(C)C)O + C[C@@H](Oc1cc(-c2cnn(C3CCNCC3)c2)cnc1N)c1c(Cl)ccc(F)c1Cl [Crizotinib] (partner 1 µM)
In a few lines:
as §1

Compound in test [3]: CN(C)CC1=CC(=CC=C1)N=C(C2=CC=CC=C2)C3=C(NC4=C3C=CC(=C4)C(=O)N(C)C)O + C[C@]1(O)C[C@@H](c2nc(-c3ccc4ccc(-c5ccccc5)nc4c3)c3c(N)nccn32)C1 [Linsitinib] (partner 1 µM)
The essentials:
as §1

Compound in test [4]: CN(C)CC1=CC(=CC=C1)N=C(C2=CC=CC=C2)C3=C(NC4=C3C=CC(=C4)C(=O)N(C)C)O + Cc1cc(Nc2cc(N3CCN(C)CC3)nc(Sc3ccc(NC(=O)C4CC4)cc3)n2)n[nH]1 [Tozasertib] (partner 0.1 µM)
In a few lines: as §1

RERF-LC-KJ: the relative viability in test [1] (first compound 0.08 µM) was found to be 0.575; in test [1] (first compound 0.253 µM), 0.613; in test [1] (first compound 0.8 µM), 0.537; in test [1] (first compound 2.53 µM) it was 0.583; in test [1] (first compound 8 µM), 0.542; in test [2] (first compound 0.08 µM) it was 0.855. The relative viability in test [2] (first compound 0.253 µM) stood at 0.771; in test [2] (first compound 0.8 µM) it was 0.707; in test [2] (first compound 2.53 µM) it was 0.887; in test [2] (first compound 8 µM) it was 0.754; in test [3] (first compound 0.08 µM), 0.912; in test [3] (first compound 0.253 µM) it was 0.93. Further, the relative viability in test [3] (first compound 0.8 µM) was found to be 0.81; in test [3] (first compound 2.53 µM), 0.948; in test [3] (first compound 8 µM) it was 0.87; in test [4] (first compound 0.08 µM), 0.494; in test [4] (first compound 0.253 µM), 0.493; in test [4] (first compound 0.8 µM) it was 0.536. Also, the relative viability amounted to 0.523 in test [4] (first compound 2.53 µM) and 0.408 in test [4] (first compound 8 µM).

LK-2: the relative viability in test [1] (first compound 0.08 µM) came out at 0.189; in test [1] (first compound 0.253 µM), 0.228; in test [1] (first compound 0.8 µM), 0.241; in test [1] (first compound 2.53 µM) it was 0.211; in test [1] (first compound 8 µM) it was 0.185; in test [2] (first compound 0.08 µM), 0.249. For the same cell line, the relative viability in test [2] (first compound 0.253 µM) came to 0.21; in test [2] (first compound 0.8 µM), 0.264; in test [2] (first compound 2.53 µM), 0.256; in test [2] (first compound 8 µM), 0.216; in test [3] (first compound 0.08 µM), 0.546; in test [3] (first compound 0.253 µM), 0.517. Further, the relative viability was 0.514 in test [3] (first compound 0.8 µM); 0.723 in test [3] (first compound 2.53 µM); 0.222 in test [3] (first compound 8 µM); 0.162 in test [4] (first compound 0.08 µM); 0.165 in test [4] (first compound 0.253 µM); 0.171 in test [4] (first compound 0.8 µM). The figures for the relative viability in test [4] (first compound 2.53 µM) and in test [4] (first compound 8 µM) were 0.188 and 0.198, respectively.

As to NCI-H1944, the relative viability stood at 0.447 in test [1] (first compound 0.08 µM); 0.491 in test [1] (first compound 0.253 µM); 0.4 in test [1] (first compound 0.8 µM); 0.355 in test [1] (first compound 2.53 µM); 0.348 in test [1] (first compound 8 µM); 1.06 in test [2] (first compound 0.08 µM). Moreover, the relative viability in test [2] (first compound 0.253 µM) came to 1.04; in test [2] (first compound 0.8 µM) it was 1.06; in test [2] (first compound 2.53 µM), 1.08; in test [2] (first compound 8 µM), 1.11; in test [3] (first compound 0.08 µM) it was 1.18; in test [3] (first compound 0.253 µM) it was 1.18. In addition, the relative viability is 1.01 in test [3] (first compound 0.8 µM); 1.17 in test [3] (first compound 2.53 µM); 1.08 in test [3] (first compound 8 µM); 0.25 in test [4] (first compound 0.08 µM); 0.251 in test [4] (first compound 0.253 µM); 0.222 in test [4] (first compound 0.8 µM). In addition, the relative viability in test [4] (first compound 2.53 µM) was 0.262; in test [4] (first compound 8 µM), 0.214.

With HCC-827, the relative viability in test [1] (first compound 0.08 µM) is 0.795; in test [1] (first compound 0.253 µM) it was 0.712; in test [1] (first compound 0.8 µM), 0.749; in test [1] (first compound 2.53 µM), 0.686; in test [1] (first compound 8 µM), 0.699; in test [2] (first compound 0.08 µM), 0.919. The relative viability in test [2] (first compound 0.253 µM) is 0.909; in test [2] (first compound 0.8 µM) it was 0.923; in test [2] (first compound 2.53 µM), 0.879; in test [2] (first compound 8 µM), 0.868; in test [3] (first compound 0.08 µM) it was 0.984; in test [3] (first compound 0.253 µM) it was 0.944. Further, the relative viability turned out to be 1.03 in test [3] (first compound 0.8 µM); 0.925 in test [3] (first compound 2.53 µM); 0.937 in test [3] (first compound 8 µM); 0.435 in test [4] (first compound 0.08 µM); 0.457 in test [4] (first compound 0.253 µM); 0.376 in test [4] (first compound 0.8 µM). Also, the relative viability was found to be 0.408 in test [4] (first compound 2.53 µM) and 0.396 in test [4] (first compound 8 µM).

With NCI-H322M, the relative viability in test [1] (first compound 0.08 µM) is 0.581; in test [1] (first compound 0.253 µM), 0.562; in test [1] (first compound 0.8 µM), 0.555; in test [1] (first compound 2.53 µM) it was 0.499; in test [1] (first compound 8 µM) it was 0.475; in test [2] (first compound 0.08 µM), 0.931. In addition, the relative viability in test [2] (first compound 0.253 µM) amounted to 0.899; in test [2] (first compound 0.8 µM), 0.928; in test [2] (first compound 2.53 µM), 0.887; in test [2] (first compound 8 µM), 0.853; in test [3] (first compound 0.08 µM) it was 1.04; in test [3] (first compound 0.253 µM), 0.816. The relative viability in test [3] (first compound 0.8 µM) came to 0.677; in test [3] (first compound 2.53 µM), 0.887; in test [3] (first compound 8 µM), 0.707; in test [4] (first compound 0.08 µM), 0.432; in test [4] (first compound 0.253 µM) it was 0.42; in test [4] (first compound 0.8 µM), 0.407. Further, the relative viability in test [4] (first compound 2.53 µM) is 0.449; in test [4] (first compound 8 µM), 0.317.

In the case of UMC-11, the relative viability in test [1] (first compound 0.08 µM) worked out at 0.492; in test [1] (first compound 0.253 µM), 0.489; in test [1] (first compound 0.8 µM) it was 0.565; in test [1] (first compound 2.53 µM) it was 0.404; in test [1] (first compound 8 µM), 0.368; in test [2] (first compound 0.08 µM), 0.62. For the same cell line, the relative viability was 0.711 in test [2] (first compound 0.253 µM); 0.662 in test [2] (first compound 0.8 µM); 0.468 in test [2] (first compound 2.53 µM); 0.588 in test [2] (first compound 8 µM); 1.01 in test [3] (first compound 0.08 µM); 0.986 in test [3] (first compound 0.253 µM). Moreover, the relative viability in test [3] (first compound 0.8 µM) was determined as 0.985; in test [3] (first compound 2.53 µM), 0.999; in test [3] (first compound 8 µM), 0.926; in test [4] (first compound 0.08 µM), 0.202; in test [4] (first compound 0.253 µM), 0.192; in test [4] (first compound 0.8 µM) it was 0.216. Also, the relative viability was 0.183 in test [4] (first compound 2.53 µM) and 0.216 in test [4] (first compound 8 µM).

In the case of EPLC-272H, the relative viability came to 0.312 in test [1] (first compound 0.08 µM); 0.37 in test [1] (first compound 0.253 µM); 0.264 in test [1] (first compound 0.8 µM); 0.258 in test [1] (first compound 2.53 µM); 0.283 in test [1] (first compound 8 µM); 0.892 in test [2] (first compound 0.08 µM). The relative viability in test [2] (first compound 0.253 µM) turned out to be 0.899; in test [2] (first compound 0.8 µM) it was 0.696; in test [2] (first compound 2.53 µM) it was 0.87; in test [2] (first compound 8 µM), 0.8; in test [3] (first compound 0.08 µM) it was 1.21; in test [3] (first compound 0.253 µM), 1.11. Further, the relative viability in test [3] (first compound 0.8 µM) is 0.937; in test [3] (first compound 2.53 µM), 1.15; in test [3] (first compound 8 µM), 0.934; in test [4] (first compound 0.08 µM), 0.351; in test [4] (first compound 0.253 µM), 0.392; in test [4] (first compound 0.8 µM), 0.303. Moreover, the results for the relative viability in test [4] (first compound 2.53 µM) and in test [4] (first compound 8 µM) were 0.278 and 0.272, respectively.
